Data taken from patent US20200190081A1, “META SUBSTITUTED PHENYLPYRAZOLO- AND PHENYLPYRROLO- PYRIDAZINE DERIVATIVES HAVING MULTIMODAL ACTIVITY AGAINST PAIN” (ESTEVE PHARMACEUTICALS, S.A., priority 2016, published 2020).

Experiments:
[1] = biological target: Human norepinephrine transporter (NET) (Homo sapiens, UniProt P23975); assay: Binding assay to human norepinephrine transporter (NET), [3H]-Nisoxetin; conditions: human NET enriched membranes, 5 nM [3H]-Nisoxetin
Experimental: Binding Assay to Human Norepinephrine Transporter (NET).
Human norepinephrine transporter (NET) enriched membranes (5 μg) were incubated with 5 nM of radiolabeled [3H]-Nisoxetin in assay buffer containing 50 mM Tris-HCl, 120 mM NaCl, 5 mM KCl, pH 7.4. NSB (non specific binding) was measured by adding 10 μM of desipramine. The binding of the test compound was measured at five different concentrations. After 60 min incubation at 4° C., binding reaction was terminated by filtering through Multiscreen GF/C (Millipore) presoaked in 0.5% polyethyleneimine in Vacuum Manifold Station, followed by 3 washes with ice-cold filtration buffer containing 50 mM Tris-HCl, 0.9% NaCl, pH 7.4. Filter plates were dried at 60° C. for 1 hour and 30 μl of scintillation cocktail were added to each well before radioactivity reading. Readings were performed in a Trilux 1450 Microbeta radioactive counter (Perkin Elmer).

[2] = biological target: Human α2δ-1 Subunit of Cav2.2 Calcium Channel (Homo sapiens, UniProt P54289); assay: Human α2δ-1 subunit of Cav2.2 calcium channel assay, [3H]-Gabapentin binding; conditions: human α2δ-1 enriched membranes, 15 nM [3H]-Gabapentin
Sequence of Human α2δ-1 Subunit of Cav2.2 Calcium Channel (P54289 25-1103): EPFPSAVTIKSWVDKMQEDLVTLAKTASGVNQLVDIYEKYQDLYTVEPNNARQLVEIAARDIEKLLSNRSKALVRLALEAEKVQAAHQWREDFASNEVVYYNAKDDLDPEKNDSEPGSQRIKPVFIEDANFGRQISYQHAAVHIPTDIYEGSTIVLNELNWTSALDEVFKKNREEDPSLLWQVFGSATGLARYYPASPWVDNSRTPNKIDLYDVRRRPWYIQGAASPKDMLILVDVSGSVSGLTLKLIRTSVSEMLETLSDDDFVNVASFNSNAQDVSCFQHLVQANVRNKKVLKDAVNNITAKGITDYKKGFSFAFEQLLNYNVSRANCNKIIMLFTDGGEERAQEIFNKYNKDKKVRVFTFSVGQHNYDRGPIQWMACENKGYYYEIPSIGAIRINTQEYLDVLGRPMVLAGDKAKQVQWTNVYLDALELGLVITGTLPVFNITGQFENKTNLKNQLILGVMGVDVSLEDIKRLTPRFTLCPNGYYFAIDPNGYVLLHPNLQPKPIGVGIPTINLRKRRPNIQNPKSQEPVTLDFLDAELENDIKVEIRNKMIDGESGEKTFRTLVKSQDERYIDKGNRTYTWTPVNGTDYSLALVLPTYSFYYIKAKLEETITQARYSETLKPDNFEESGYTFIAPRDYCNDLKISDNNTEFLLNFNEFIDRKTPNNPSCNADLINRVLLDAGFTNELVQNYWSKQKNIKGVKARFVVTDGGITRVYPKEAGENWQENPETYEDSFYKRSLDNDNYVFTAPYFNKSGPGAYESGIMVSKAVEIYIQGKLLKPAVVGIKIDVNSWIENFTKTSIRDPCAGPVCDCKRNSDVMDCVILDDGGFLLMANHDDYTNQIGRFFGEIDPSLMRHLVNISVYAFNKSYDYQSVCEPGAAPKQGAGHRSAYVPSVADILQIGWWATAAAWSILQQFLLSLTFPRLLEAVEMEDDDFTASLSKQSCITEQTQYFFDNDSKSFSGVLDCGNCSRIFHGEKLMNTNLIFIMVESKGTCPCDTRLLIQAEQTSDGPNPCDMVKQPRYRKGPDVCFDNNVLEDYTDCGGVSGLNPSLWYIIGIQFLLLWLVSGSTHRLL
Experimental: Human α2δ-1 Subunit of Cav2.2 Calcium Channel Assay
Human α2δ-1 enriched membranes (2.5 μg) were incubated with 15 nM of radiolabeled [3H]-Gabapentin in assay buffer containing Hepes-KOH 10 mM, pH 7.4. NSB (non specific binding) was measured by adding 10 μM pregabalin. The binding of the test compound was measured at five different concentrations. After 60 min incubation at 27° C., binding reaction was terminated by filtering through Multiscreen GF/C (Millipore) presoaked in 0.5% polyethyleneimine in Vacuum Manifold Station, followed by 3 washes with ice-cold filtration buffer containing 50 mM Tris-HCl, pH 7.4. Filter plates were dried at 60° C. for 1 hour and 30 μl of scintillation cocktail were added to each well before radioactivity reading. Readings were performed in a Trilux 1450 Microbeta radioactive counter (Perkin Elmer).

Sequence of Human norepinephrine transporter (NET) (P23975 whole entry): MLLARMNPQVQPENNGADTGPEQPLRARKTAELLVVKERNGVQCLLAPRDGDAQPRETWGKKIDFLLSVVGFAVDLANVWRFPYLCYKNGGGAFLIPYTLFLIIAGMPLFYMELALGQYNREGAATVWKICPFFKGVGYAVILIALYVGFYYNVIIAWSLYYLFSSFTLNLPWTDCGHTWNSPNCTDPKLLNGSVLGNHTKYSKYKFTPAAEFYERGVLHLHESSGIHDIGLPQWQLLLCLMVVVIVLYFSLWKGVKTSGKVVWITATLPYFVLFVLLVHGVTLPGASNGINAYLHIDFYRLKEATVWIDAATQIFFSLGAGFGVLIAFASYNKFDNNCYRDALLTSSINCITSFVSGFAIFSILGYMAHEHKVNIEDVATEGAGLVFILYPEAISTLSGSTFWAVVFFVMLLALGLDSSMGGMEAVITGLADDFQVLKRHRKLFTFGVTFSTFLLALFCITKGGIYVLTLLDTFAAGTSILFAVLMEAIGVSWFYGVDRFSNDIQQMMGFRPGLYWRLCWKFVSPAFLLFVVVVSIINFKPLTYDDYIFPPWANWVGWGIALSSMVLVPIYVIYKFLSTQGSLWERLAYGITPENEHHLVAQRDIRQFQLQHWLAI

Row | SMILES | Ki [1] | Ki [2]
1 | CNCCC(Oc1cccc(-n2nc3c(N(C)C)nnc(C)c3c2C)c1)c1ccc(C#N)cc1 (centres unmarked) [Example 7, 4-(1-(3-(7-(dimethylamino)-3,4-dimethyl-2H-pyrazolo[3,4-d]pyridazin-2-yl)phenoxy)-3-(methylamino)propyl)benzonitrile] | 100 to 500 nM | 500 to 5000 nM
2 | CNC[C@@H](Oc1cccc(-n2nc3c(N(C)C)nnc(C)c3c2C)c1)c1ccccc1 [Example 61, (S)-N,N,3,4-tetramethyl-2-(3-(2-(methylamino)-1-phenylethoxy)phenyl)-2H-pyrazolo[3,4-d]pyridazin-7-amine] | < 100 nM | 500 to 5000 nM
3 | CNCCC(Oc1cccc(-n2nc3c(N(C)C)nnc(C)c3c2C)c1)c1ccncc1 (centres unmarked) [Example 10, N,N,3,4-tetramethyl-2-(3-(3-(methylamino)-1-(pyridin-4-yl)propoxy)phenyl)-2H-pyrazolo[3,4-d]pyridazin-7-amine] | < 100 nM | 500 to 5000 nM
4 | Cc1nnc(N(C)C)c2nn(-c3cccc(OC(CCN)c4cccc(F)c4)c3)c(C)c12 (centres unmarked) [Example 21, 2-(3-(3-amino-1-(3-fluorophenyl)propoxy)phenyl)-N,N,3,4-tetramethyl-2H-pyrazolo[3,4-d]pyridazin-7-amine] | 100 to 500 nM | 500 to 5000 nM
5 | CCNCCC(Oc1cccc(-n2nc3c(N(C)C)nnc(C)c3c2C)c1)c1cccc(F)c1 (centres unmarked) [Example 17, 2-(3-(3-(ethylamino)-1-(3-fluorophenyl)propoxy)phenyl)-N,N,3,4-tetramethyl-2H-pyrazolo[3,4-d]pyridazin-7-amine] | ≥ 1000 nM | 500 to 5000 nM
6 | CNCC[C@H](Oc1cccc(-n2nc3c(N(C)C)nnc(C)c3c2C)c1)c1cccnc1 [Example 64, (S)-N,N,3,4-tetramethyl-2-(3-(3-(methylamino)-1-(pyridin-3-yl)propoxy)phenyl)-2H-pyrazolo[3,4-d]pyridazin-7-amine] | 100 to 500 nM | < 500 nM
7 | CNCCC(Oc1cccc(-n2nc3c(N(C)C)nnc(C)c3c2C)c1)c1ccccc1F (centres unmarked) [Example 30, 2-(3-(1-(2-Fluorophenyl)-3-(methylamino)propoxy)phenyl)-N,N,3,4-tetramethyl-2H-pyrazolo[3,4-d]pyridazin-7-amine] | < 100 nM | 500 to 5000 nM
8 | CNC1(CC(Oc2cccc(-n3nc4c(N(C)C)nnc(C)c4c3C)c2)c2ccccc2)CC1 (centres unmarked) [Example 49, N,N,3,4-tetramethyl-2-(3-(2-(1-(methylamino)cyclopropyl)-1-phenylethoxy)phenyl)-2H-pyrazolo[3,4-d]pyridazin-7-amine] | < 100 nM | 500 to 5000 nM
9 | CNCC(Oc1cccc(-n2nc3c(N(C)C)nnc(C)c3c2C)c1)c1ccccc1 (centres unmarked) [Example 35, N,N,3,4-tetramethyl-2-(3-(2-(methylamino)-1-phenylethoxy)phenyl)-2H-pyrazolo[3,4-d]pyridazin-7-amine] | < 100 nM | 500 to 5000 nM
10 | CNCCC(Oc1cccc(-n2nc3c(N(C)C)nnc(C)c3c2C)c1)c1ccccc1 (centres unmarked) [Example 1, N,N,3,4-Tetramethyl-2-(3-(3-(methylamino)-1-phenylpropoxy)phenyl)-2H-pyrazolo[3,4-d]pyridazin-7-amine] | < 100 nM | 500 to 5000 nM
11 | CNC(COc1cccc(-n2nc3c(N(C)C)nnc(C)c3c2C)c1)c1ccccc1 (centres unmarked) [Example 15, N,N,3,4-tetramethyl-2-(3-(2-(methylamino)-2-phenylethoxy)phenyl)-2H-pyrazolo[3,4-d]pyridazin-7-amine] | < 100 nM | 500 to 5000 nM
12 | CNCCC(Oc1cccc(-n2nc3c(N(C)C)nnc(C)c3c2C)c1)c1cccc(C#N)c1 (centres unmarked) [Example 11, 3-(1-(3-(7-(dimethylamino)-3,4-dimethyl-2H-pyrazolo[3,4-d]pyridazin-2-yl)phenoxy)-3-(methylamino)propyl)benzonitrile] | < 100 nM | 500 to 5000 nM
13 | CNCCC(Oc1cccc(-n2nc3c(N(C)C)nnc(C)c3c2C)c1)c1cccnc1 (centres unmarked) [Example 42, N,N,3,4-tetramethyl-2-(3-(3-(methylamino)-1-(pyridin-3-yl)propoxy)phenyl)-2H-pyrazolo[3,4-d]pyridazin-7-amine] | 100 to 500 nM | < 500 nM
